Experimental data as given in patent US12351581B2, “Compounds for FGFR inhibition” (Cogent Biosciences, Inc., priority 2023, dated 2025).
Where two headings read alike, the source gives them in different places.

What was measured:
FGFR2 = molecular target: T1, FGFR2 (Homo sapiens, UniProt P21802); experiment: FGFR wild type enzyme assay (HTRF KinEASE-TK); assay type: biochemical; settings: ATP 2 uM
T1 construct: biochemical assays using purified intracellular domains of the respective isoforms; purchased Carna Bioscience 08-134
T1 sequence (P21802 399-821 limits assumed): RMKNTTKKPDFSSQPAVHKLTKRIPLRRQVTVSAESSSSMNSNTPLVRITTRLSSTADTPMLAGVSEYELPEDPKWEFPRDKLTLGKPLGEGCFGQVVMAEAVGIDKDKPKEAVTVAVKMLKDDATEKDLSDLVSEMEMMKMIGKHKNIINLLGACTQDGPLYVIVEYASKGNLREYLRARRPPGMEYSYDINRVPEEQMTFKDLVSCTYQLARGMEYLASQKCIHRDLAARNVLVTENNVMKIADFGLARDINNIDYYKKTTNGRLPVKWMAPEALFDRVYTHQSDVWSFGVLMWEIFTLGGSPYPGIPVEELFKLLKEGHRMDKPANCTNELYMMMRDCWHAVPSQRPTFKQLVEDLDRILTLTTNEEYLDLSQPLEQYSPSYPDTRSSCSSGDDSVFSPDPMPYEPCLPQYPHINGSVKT
Experimental: (§1) Activity against FGFR wild type and mutant enzymes were determined in biochemical assays using purified intracellular domains of the respective isoforms using HTRF KinEASE-TK assay technology from CisBio, now PerkinElmer. (Catalogue number 62TK0PEC). Briefly test compounds were tested in 11 point 1:3 serial dilutions, typical final concentration range from 10,000 nM to 0.17 nM. Test compounds were dissolved in DMSO and added to assay plates using acoustic transfer. Enzyme was pre-incubated with test compound for 30 minutes and the assay was initiated by addition of ATP and TK-peptide substrate. After 60 minutes at room temperature the reaction was quenched with detection reagent and incubated for an additional 60 minutes at room temperature. The plates were read using a multimode reader and the emission ratio of 665 nm to 615 nm was determined. This ratio was converted to percent of control (POC). [1-(high control-sample signal)/(high control-low control)]*100. Wells without compound were used to determine high control values and wells without enzyme were used to determine low control values. The POC values were fit using a four-parameter logistic model and the value where the fit curve was equal to 50 POC was reported as the IC50 using the Signals Vitro Vivo software package (PerkinElmer). Final assay conditions were: 50 mM HEPES pH7.5, 10 mM MgCl2, 1 mM EDTA, 0.01% Brij-35, 2 mM MnCl2, 1 mM DTT, and 0.5 uM TK-peptide. The enzyme source, catalogue number, final enzyme concentration, and final ATP concentration can be found in the tables 1-2 below.

FGFR2-WT = FGFR2-WT (Homo sapiens, UniProt P21802); experiment: Phosphorylated FGFR2-WT (pFGFR2-WT) cell assay, KATOIII cells; assay type: cell-based; settings: 1 hour incubation, phospho FGFR2 HTRF
FGFR2-WT, sequence (P21802 430-767 limits assumed): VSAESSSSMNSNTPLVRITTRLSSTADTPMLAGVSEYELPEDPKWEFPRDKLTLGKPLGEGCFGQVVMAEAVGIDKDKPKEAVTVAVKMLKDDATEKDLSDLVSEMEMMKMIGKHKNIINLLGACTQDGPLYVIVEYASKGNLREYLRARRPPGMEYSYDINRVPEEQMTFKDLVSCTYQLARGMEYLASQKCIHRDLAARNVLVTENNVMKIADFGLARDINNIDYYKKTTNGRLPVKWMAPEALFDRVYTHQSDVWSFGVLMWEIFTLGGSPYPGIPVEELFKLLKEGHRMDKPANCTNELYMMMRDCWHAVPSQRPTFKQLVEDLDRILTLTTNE
Experimental: KATOIII cells were grown in the appropriate growth medium, IMDM supplemented with 20% fetal bovine serum. Cells were seeded into a 384-well at 1×10^5 cells/25 μL/well. Cells were treated with compound using three-fold serial dilutions at final concentrations ranging from 10 μM to 0.5 nM. Compound was incubated on cells for 1 hour at 37° C., 5% CO2.
Following the 1-hour incubation with compounds, cell lysates were prepared and phospho FGFR2 was measured using the HTRF Phospho-FGFR2 (TYR653/654) Detection Kits (CisBio, cat #64FGFR2Y6PEG). 8 μL of cell lysis buffer (4×) supplied with 1× Phospho and Total protein blocking reagent (CisBio, cat #64FGFR2Y6PEG, CisBio, cat #64KB1AAC) was then added to the wells. Cells were incubated with lysis buffer for 40 minutes at 4° C. under shaking conditions. Plates were centrifuged at 1500 rpm for 3 min and then 16 μL of cell lysate was transferred from the cell-culture plate to a small volume detection plate with the added premixed antibody solutions (4 μL) (CisBio, cat #64FGFR2Y6PEG). Plates were centrifuged at 1000 rpm for 1 min then incubated at 25° C. for 120 min, then overnight at 4° C. Plates were read on the En Vision multimode plate reader via HTRF dual wavelength detection. One hundred percent of control (POC) was determined using DMSO treated samples, and 0 POC was determined using the top concentration of a control compound. A 4-parameter logistic curve was fit to the POC values as a function of compound concentration to determine the IC50 value.

FGFR2 V564F = molecular target: T2, FGFR2 V564F (Homo sapiens, UniProt P21802, V564F); experiment: FGFR mutant enzyme assay (HTRF KinEASE-TK); assay type: biochemical; settings: ATP 1.5 uM
T2 construct: biochemical assays using purified intracellular domains of the respective isoforms; purchased SignalChem Biotech F05-12FG
T2 sequence (P21802 399-821 V564F limits assumed): as the sequence (P21802 399-821 limits assumed) above, with V166F counted along it
Experimental: as §1

FGFR2 N549H = molecular target: T3, FGFR2 N549H (Homo sapiens, UniProt P21802, N549H); experiment: FGFR mutant enzyme assay (HTRF KinEASE-TK); assay type: biochemical; settings: ATP 0.9 uM
T3 construct: biochemical assays using purified intracellular domains of the respective isoforms; purchased Carna Bioscience 08-532
T3 sequence (P21802 399-821 N549H limits assumed): as the sequence (P21802 399-821 limits assumed) above, with N151H counted along it
Experimental: as §1

FGFR2 V564I = molecular target: T4, FGFR2 V564I (Homo sapiens, UniProt P21802, V564I); experiment: FGFR mutant enzyme assay (HTRF KinEASE-TK); assay type: biochemical; settings: ATP 0.4 uM
T4 construct: biochemical assays using purified intracellular domains of the respective isoforms; purchased Carna Bioscience 08-546
T4 sequence (P21802 399-821 V564I limits assumed): as the sequence (P21802 399-821 limits assumed) above, with V166I counted along it
Experimental: as §1

[1] = compound table after the examples, read-out: Enz FGFR2

| Compound | IC50 (FGFR2; Table 3, read-out: FGFR2 Enz) [nM] | IC50 (FGFR2; [1]) [nM] | IC50 (FGFR2-WT) [nM] | IC50 (FGFR2 V564F) [nM] | IC50 (FGFR2 N549H) [nM] | IC50 (FGFR2 V564I) [nM] |
| --- | --- | --- | --- | --- | --- | --- |
| Cc1c(-c2cc(O[C@H](C)c3ccc(F)cn3)c3c(C#N)cnn3c2)cnn1[C@H]1CC[C@H](O)CC1 [Compound 1, 4-[(1R)-1-(5-fluoro-2-pyridyl)ethoxy]-6-[1-(4-hydroxycyclohexyl)-5-methyl-pyrazol-4-yl]pyrazolo[1,5-a]pyridine-3-carbonitrile] | 0.3 | 0.3 | 3.4 | 1 | 0.4 | 1.4 |
| C[C@@H](Oc1cc(-c2cnn(C3CCNCC3)c2)cn2ncc(C#N)c12)c1ccccn1 [Compound 2, (R)-6-(1-(piperidin-4-yl)-1H-pyrazol-4-yl)-4-(1-(pyridin-2-yl)ethoxy)pyrazolo[1,5-a]pyridine-3-carbonitrile] | 0.16 | 0.16 | 2.5 | 0.14 | 0.05 | 0.24 |
| C[C@H](Oc1cc(-c2cnn(C3CCNCC3)c2)cn2ncc(C#N)c12)c1ccccn1 [Compound 3, (S)-6-(1-(piperidin-4-yl)-1H-pyrazol-4-yl)-4-(1-(pyridin-2-yl)ethoxy)pyrazolo[1,5-a]pyridine-3-carbonitrile] | 21 | 21 | 128 |  |  |  |
| Cc1nn(C2CCNCC2)c(C)c1-c1cc(O[C@H](C)c2ccccn2)c2c(C#N)cnn2c1 [Compound 4, (R)-6-(3,5-dimethyl-1-(piperidin-4-yl)-1H-pyrazol-4-yl)-4-(1-(pyridin-2-yl)ethoxy)pyrazolo[1,5-a]pyridine-3-carbonitrile] | 1 | 1 | 26 | 3 | 2 | 4 |
| Cc1c(-c2cc(O[C@H](C)c3ccccn3)c3c(C#N)cnn3c2)cnn1C1CCNCC1 [Compound 5, (R)-6-(5-methyl-1-(piperidin-4-yl)-1H-pyrazol-4-yl)-4-(1-(pyridin-2-yl)ethoxy)pyrazolo[1,5-a]pyridine-3-carbonitrile] | 0.25 | 0.25 | 5 | 1 | 0.7 | 1.4 |
| Cc1nn(C2CCN(C)CC2)c(C)c1-c1cc(O[C@H](C)c2ccccn2)c2c(C#N)cnn2c1 [Compound 6, (R)-6-(3,5-dimethyl-1-(1-methylpiperidin-4-yl)-1H-pyrazol-4-yl)-4-(1-(pyridin-2-yl)ethoxy)pyrazolo[1,5-a]pyridine-3-carbonitrile] | 1 | 1 | 15 | 4 | 2.4 | 4.3 |
| Cc1c(-c2cc(O[C@H](C)c3ccccn3)c3c(C#N)cnn3c2)cnn1C1CCN(C)CC1 [Compound 7, (R)-6-(5-methyl-1-(1-methylpiperidin-4-yl)-1H-pyrazol-4-yl)-4-(1-(pyridin-2-yl)ethoxy)pyrazolo[1,5-a]pyridine-3-carbonitrile] | 0.3 | 0.3 | 6 | 1 | 0.5 | 1 |
| C[C@@H](Oc1cc(-c2cnn(C3CCNCC3)c2)cn2ncc(C#N)c12)c1ncccc1F [Compound 8, (R)-4-(1-(3-fluoropyridin-2-yl)ethoxy)-6-(1-(piperidin-4-yl)-1H-pyrazol-4-yl)pyrazolo[1,5-a]pyridine-3-carbonitrile] | 0.2 | 0.2 | 2 | 0.08 | 0.05 | 0.1 |
| Cc1c(-c2cc(O[C@H](C)c3ncccc3F)c3c(C#N)cnn3c2)cnn1C1CCNCC1 [Compound 9, (R)-4-(1-(3-fluoropyridin-2-yl)ethoxy)-6-(5-methyl-1-(piperidin-4-yl)-1H-pyrazol-4-yl)pyrazolo[1,5-a]pyridine-3-carbonitrile] | 0.3 | 0.3 | 7 | 1 | 0.5 | 1 |
| Cc1c(-c2cc(O[C@H](C)c3ncccc3F)c3c(C#N)cnn3c2)cnn1[C@H]1CCCNC1 [Compound 10, 4-((R)-1-(3-fluoropyridin-2-yl)ethoxy)-6-(5-methyl-1-((S)-piperidin-3-yl)-1H-pyrazol-4-yl)pyrazolo[1,5-a]pyridine-3-carbonitrile] | 0.3 | 0.3 | 5 | 0.8 | 0.55 | 1 |
| Cc1nn([C@H]2CCCNC2)c(C)c1-c1cc(O[C@H](C)c2ncccc2F)c2c(C#N)cnn2c1 [Compound 11, 6-(3,5-dimethyl-1-((S)-piperidin-3-yl)-1H-pyrazol-4-yl)-4-((R)-1-(3-fluoropyridin-2-yl)ethoxy)pyrazolo[1,5-a]pyridine-3-carbonitrile] | 1.4 | 0.5 | 23 | 4.4 | 4.6 | 5.8 |
| Cc1c(-c2cc(O[C@H](C)c3ccc(F)cn3)c3c(C#N)cnn3c2)cnn1[C@H]1CCCNC1 [Compound 12, 4-((R)-1-(5-fluoropyridin-2-yl)ethoxy)-6-(5-methyl-1-((S)-piperidin-3-yl)-1H-pyrazol-4-yl)pyrazolo[1,5-a]pyridine-3-carbonitrile] | 0.45 | 0.5 | 4.7 | 1.3 | 0.7 | 1.8 |
| CC(=O)N1CCC[C@H](n2ncc(-c3cc(O[C@H](C)c4ccc(F)cn4)c4c(C#N)cnn4c3)c2C)C1 [Compound 13, 6-(1-((S)-1-acetylpiperidin-3-yl)-5-methyl-1H-pyrazol-4-yl)-4-((R)-1-(5-fluoropyridin-2-yl)ethoxy)pyrazolo[1,5-a]pyridine-3-carbonitrile] | 0.5 | 0.6 | 3.8 | 1.6 | 0.6 | 2 |
| Cc1c(-c2cc(O[C@H](C)c3ccc(Cl)cn3)c3c(C#N)cnn3c2)cnn1[C@H]1CCCNC1 [Compound 14, 4-((R)-1-(5-chloropyridin-2-yl)ethoxy)-6-(5-methyl-1-((S)-piperidin-3-yl)-1H-pyrazol-4-yl)pyrazolo[1,5-a]pyridine-3-carbonitrile] | 12.5 | 12.5 | 267 | 15 | 14 | 38 |
| C[C@@H]1CN(c2ccc(-c3cc(O[C@H](C)c4ccc(F)cn4)c4c(C#N)cnn4c3)cn2)C[C@H](C)O1 [Compound 16, 6-(6-((2S,6R)-2,6-dimethylmorpholino)pyridin-3-yl)-4-((R)-1-(5-fluoropyridin-2-yl)ethoxy)pyrazolo[1,5-a]pyridine-3-carbonitrile] | 0.5 | 0.5 | 8 | 0.8 | 0.3 | 1 |
| Cc1c(-c2cc(O[C@H](C)c3ccc(F)cn3)c3c(C#N)cnn3c2)cnn1[C@H]1CCCN(C(=O)C(C)(C)O)C1 [Compound 17, 4-((R)-1-(5-fluoropyridin-2-yl)ethoxy)-6-(1-((S)-1-(2-hydroxy-2-methylpropanoyl)piperidin-3-yl)-5-methyl-1H-pyrazol-4-yl)pyrazolo[1,5-a]pyridine-3-carbonitrile] | 0.6 | 0.6 | 3.4 | 1 | 0.5 | 1.7 |
